Measurements as given in US20250144067A1, “PERSONALIZED STARVATION THERAPY FOR CANCER” (Faeth Therapeutics, Inc., priority 2021, published 2025).
Counter-ions that a name gives are not always drawn. Peptide text beside a SMILES is read from it.

Legend:
[1] = tested on: NCI-H292 lung cancer cells; assay: FDA drug screening, complete media vs cholesterol-free media with simvastatin (TABLE 2); format: cell-based, human; details: for Cholesterol-free media + simvastatin (0.04 μM) / Complete Media: NCI-H292 cells
[2] = tested on: NCI-H292 lung cancer cells; assay: FDA drug screening, complete media vs cholesterol-free media without statin (TABLE 1); format: cell-based, human
[3] = FDA library drug in cholesterol-free media with simvastatin 0.04 μM
[4] = FDA library drug in complete media
[5] = complete media vs cholesterol-free media + simvastatin (0.04 μM), >0 enhanced anti-cancer activity, about 0 neutral, <0 antagonist
[6] = Complete minus Cholesterol-free, >0 enhanced anti-cancer activity, about 0 neutral, <0 antagonist
[7] = NCI-H292 cells, cholesterol-free media without statin, FDA drug library screen
[8] = NCI-H292 cells, complete media, FDA drug library screen
[9] = FDA drug library screen, cholesterol-free media with simvastatin 0.04 μM
[10] = FDA drug library screen, complete media
[11] = Complete minus Cholesterol-free, greater than 0 enhanced anti-cancer activity, about 0 neutral, below 0 antagonist
[12] = NCI-H292 cells, FDA drug library screen, cholesterol-free media without statin
[13] = NCI-H292 cells, FDA drug library screen, complete media
[14] = complete media minus cholesterol-free media + simvastatin, >0 enhanced anti-cancer activity, about 0 neutral, <0 antagonist
[15] = complete vs cholesterol-free media, >0 enhanced anti-cancer activity, about 0 neutral, <0 antagonist
[16] = NCI-H292 cells, cholesterol-free media without statin
[17] = complete vs cholesterol-free media, greater than 0 enhanced anti-cancer activity, about 0 neutral, below 0 antagonists
[18] = cholesterol-free media with simvastatin 0.04 μM, cell growth value in FDA drug screen
[19] = complete media, cell growth value in FDA drug screen
[20] = Complete minus Cholesterol-free, greater than 0 enhanced anti-cancer activity, about 0 neutral, below 0 antagonists
[21] = NCI-H292 cells in cholesterol-free media without statin
[22] = NCI-H292 cells in complete media
[23] = complete media minus cholesterol-free media + simvastatin, […]
[24] = complete vs cholesterol-free media, […]
[25] = drug in cholesterol-free media with simvastatin 0.04 μM
[26] = cholesterol-free media with simvastatin 0.04 μM, FDA drug library screen (TABLE 2)
[27] = complete media, FDA drug library screen (TABLE 2)
[28] = complete media minus cholesterol-free media + simvastatin (0.04 μM), >0 enhanced anti-cancer activity, about 0 neutral, <0 antagonist

CCc1cc(/C(C)=N/OCc2ccc(C3CCCCC3)c(C(F)(F)F)c2)ccc1CN1CC(C(=O)O)C1 [Siponimod]
Cholesterol-free media + simvastatin (0.04 μM) [1, 3]: 1.121
Complete Media [1, 4]: 0.7701
Difference [1, 5]: −0.35
Difference [2, 6]: −0.01
Cholesterol-free [2, 7]: 0.9324
Complete [2, 8]: 0.9251

CCc1ccc(C(=O)C(C)CN2CCCCC2)cc1 (stereo not shown) [Eperisone (Hydrochloride)]
Cholesterol-free media + simvastatin (0.04 μM) [1, 9]: 1.323
Complete Media [1, 10]: 1.222
Difference [1, 5]: −0.10
Difference [2, 11]: −0.09
Cholesterol-free [2, 12]: 0.978
Complete [2, 13]: 0.8889

Oc1c(Br)cc(Br)c2cccnc12 [Broxyquinoline]
Cholesterol-free media + simvastatin (0.04 μM) [1, 9]: 1.072
Complete Media [1, 10]: 1.219
Difference [1, 14]: 0.15
Cholesterol-free [2, 7]: 1.044
Complete [2, 8]: 1.24
Difference [2, 15]: 0.20

CN(C)CCCOc1nn(Cc2ccccc2)c2ccccc12 [Benzydamine (hydrochloride)]
Cholesterol-free media + simvastatin (0.04 μM) [1, 9]: 0.5074
Complete Media [1, 10]: 1.108
Difference [1, 14]: 0.60
Cholesterol-free [2, 16]: 1.444
Complete ([2]; NCI-H292 cells, complete media): 1.002
Difference [2, 17]: −0.44

CN1C(=O)/C(=C2/C(=O)Nc3ccccc32)c2ccccc21 [Meisoindigo]
Cholesterol-free media + simvastatin (0.04 μM) [1, 9]: 0.9145
Complete Media [1, 10]: 1.461
Difference [1, 14]: 0.55
Cholesterol-free [2, 7]: 0.8169
Complete [2, 8]: 1.238
Difference [2, 15]: 0.42

CC[C@H](C)C(=O)O[C@H]1C[C@H](O)C=C2C=C[C@H](C)[C@H](CC[C@@H](O)C[C@@H](O)CC(=O)[O-])[C@H]21.[Na+] [Pravastatin (sodium)]
Cholesterol-free media + simvastatin (0.04 μM) [1, 18]: 1.193
Complete Media [1, 19]: 1.235
Difference [1, 14]: 0.04
Difference [2, 20]: −0.48
Cholesterol-free [2, 21]: 1.713
Complete [2, 22]: 1.238

CC(C)n1c(/C=C/C(O)CC(O)CC(=O)O)c(-c2ccc(F)cc2)c2ccccc21 (stereo not shown) [Fluvastatin (sodium)]
Cholesterol-free media + simvastatin (0.04 μM) [1, 9]: 0.3266
Complete Media [1, 10]: 0.199
Difference [1, 5]: −0.13
Difference [2, 6]: −0.22
Cholesterol-free [2, 16]: 0.3896
Complete ([2]; NCI-H292 cells, complete media): 0.168

Tosufloxacin (tosylate hydrate)
Cholesterol-free media + simvastatin (0.04 μM) [1, 9]: 1.004
Complete Media [1, 10]: 0.9272
Difference [1, 5]: −0.08
Cholesterol-free [2, 16]: 1.21
Complete ([2]; NCI-H292 cells, complete media): 0.8679
Difference [2, 17]: −0.34

Safinamide (mesylate)
Complete Media ([1]; drug in complete media): 0.843
Difference [1, 5]: −0.20
Difference [2, 11]: −0.18

CC[C@H](C)[C@H](N)C1=N[C@H](C(=O)N[C@@H](CC(C)C)C(=O)N[C@H](CCC(=O)O)C(=O)N[C@H](C(=O)N[C@H]2CCCCNC(=O)[C@H](CC(N)=O)NC(=O)[C@@H](CC(=O)O)NC(=O)[C@H](Cc3cnc[nH]3)NC(=O)[C@@H](Cc3ccccc3)NC(=O)[C@H]([C@@H](C)CC)NC(=O)[C@@H](CCCN)NC2=O)[C@@H](C)CC)CS1 [Bacitracin] (HELM PEPTIDE1{[CC[C@H](C)[C@H](N)C1=N[C@H](C(=O)[*:2])CS1].L.[dE].I.K.[NCCC[C@@H](N[*:1])C(=O)[*:2]].I.[dF].H.[dD].N}$PEPTIDE1,PEPTIDE1,5:R3-11:R2$$$V2.0)
Cholesterol-free media + simvastatin (0.04 μM) [1, 9]: 0.9407
Complete Media [1, 10]: 1.203
Difference [1, 23]: 0.26
Cholesterol-free [2, 16]: 1.42
Complete ([2]; NCI-H292 cells, complete media): 1.094
Difference [2, 24]: −0.33

N[C@@H](CCC(=O)O)C(=O)O [(S)-Glutamic acid]
Cholesterol-free media + simvastatin (0.04 μM) [1, 9]: 0.9378
Complete Media [1, 10]: 0.8445
Difference ([1]; complete media vs cholesterol-free media + simvastatin (0.04 μM), […]): −0.09
Cholesterol-free [2, 7]: 1.299
Complete [2, 8]: 1.635
Difference [2, 24]: 0.34

CCc1cccc2c3c([nH]c12)C(CC)(CC(=O)O)OCC3 (stereo not shown) [Etodolac]
Cholesterol-free media + simvastatin (0.04 μM) [1, 9]: 0.9939
Complete Media [1, 10]: 1.145
Difference [1, 14]: 0.15
Cholesterol-free [2, 16]: 1.251
Complete ([2]; NCI-H292 cells, complete media): 0.9193
Difference [2, 17]: −0.33

CC(OC(=O)NCC1(CC(=O)O)CCCCC1)OC(=O)C(C)C (stereo not shown) [Gabapentin enacarbil]
Cholesterol-free media + simvastatin (0.04 μM) [1, 9]: 1.032
Complete Media [1, 10]: 0.9332
Difference [1, 5]: −0.10
Difference [2, 11]: −0.14
Cholesterol-free [2, 12]: 1.017
Complete [2, 13]: 0.8727

NCc1ccccc1CC(=O)N[C@@H]1C(=O)N2C(C(=O)O)=C(CSc3nnnn3CC(=O)O)CS[C@H]12 [Ceforanide]
Cholesterol-free media + simvastatin (0.04 μM) [1, 9]: 1.034
Complete Media [1, 10]: 1.331
Difference [1, 14]: 0.30
Difference [2, 20]: −0.76
Cholesterol-free [2, 21]: 1.736
Complete [2, 22]: 0.9794

CCCC(=O)Nc1ncnc2c1ncn2[C@@H]1O[C@@H]2COP(=O)(O)O[C@H]2[C@H]1OC(=O)CCC [Bucladesine (sodium)]
Cholesterol-free media + simvastatin (0.04 μM) [1, 25]: 1.094
Complete Media ([1]; drug in complete media): 0.8977
Difference [1, 5]: −0.20
Difference [2, 6]: −0.23
Cholesterol-free [2, 16]: 1.11
Complete ([2]; NCI-H292 cells, complete media): 0.8768

Octreotide (acetate)
Complete Media [1, 10]: 1.58
Difference [1, 23]: 0.17
Cholesterol-free [2, 16]: 1.157
Complete ([2]; NCI-H292 cells, complete media): 0.7258
Difference [2, 24]: −0.43

CN1CCCN=C1/C=C/c1cccs1.O=C(O)c1cc2ccccc2c(Cc2c(O)c(C(=O)O)cc3ccccc23)c1O [Pyrantel (pamoate)]
Cholesterol-free media + simvastatin (0.04 μM) [1, 3]: 1.254
Complete Media [1, 4]: 0.856
Difference [1, 5]: −0.40
Cholesterol-free [2, 7]: 1.079
Complete [2, 8]: 1.203
Difference [2, 15]: 0.12

O=C(O)c1ccc(NC(=O)[C@H](Cc2ccc(O)cc2)NC(=O)c2ccccc2)cc1 [Bentiromide]
Cholesterol-free media + simvastatin (0.04 μM) [1, 25]: 0.9161
Complete Media ([1]; drug in complete media): 0.7117
Difference [1, 5]: −0.20
Difference [2, 6]: −0.23
Cholesterol-free [2, 16]: 1.105
Complete ([2]; NCI-H292 cells, complete media): 0.8729

CCNC(=O)CCC/C=C\C[C@@H]1[C@@H](/C=C/[C@@H](O)CCc2ccccc2)[C@H](O)C[C@@H]1O [Bimatoprost]
Cholesterol-free media + simvastatin (0.04 μM) [1, 3]: 1.43
Complete Media [1, 4]: 0.9569
Difference [1, 5]: −0.47
Cholesterol-free [2, 16]: 1.545
Complete ([2]; NCI-H292 cells, complete media): 1.142
Difference [2, 17]: −0.40

COC(=O)C[C@](O)(CCCC(C)(C)O)C(=O)O[C@@H]1C(OC)=C[C@]23CCCN2CCc2cc4c(cc2[C@H]13)OCO4 [Homoharringtonine]
Cholesterol-free media + simvastatin (0.04 μM) [1, 26]: 0.0331
Complete Media [1, 27]: 0.0063
Difference [1, 28]: −0.03
Difference [2, 6]: −0.02
Cholesterol-free [2, 7]: −0.02013
Complete [2, 8]: −0.04264

Nc1c(CC(=O)O)cccc1C(=O)c1ccccc1 [Amfenac (Sodium Hydrate)]
Cholesterol-free media + simvastatin (0.04 μM) [1, 26]: 0.8959
Complete Media [1, 27]: 0.8462
Difference [1, 28]: −0.05
Cholesterol-free [2, 7]: 1.155
Complete [2, 8]: 1.799
Difference [2, 15]: 0.64

C[C@@H]1O[C@@H](OC[C@H]2O[C@@H](Oc3c(-c4ccc(O)c(O)c4)oc4cc(O)cc(O)c4c3=O)[C@H](O)[C@@H](O)[C@@H]2O)[C@H](O)[C@H](O)[C@H]1O [Rutin]
Cholesterol-free media + simvastatin (0.04 μM) [1, 25]: 1.71
Complete Media ([1]; drug in complete media): 1.488
Difference [1, 5]: −0.22
Cholesterol-free [2, 7]: 1.229
Complete [2, 8]: 1.309
Difference [2, 15]: 0.08

Cc1cc(-c2ccccc2)nnc1NCCN1CCOCC1 [Minaprine (dihydrochloride)]
Cholesterol-free media + simvastatin (0.04 μM) [1, 9]: 0.8439
Complete Media [1, 10]: 1.278
Difference [1, 14]: 0.43
Cholesterol-free [2, 16]: 1.341
Complete ([2]; NCI-H292 cells, complete media): 0.9021
Difference [2, 17]: −0.44

CCc1ccc(CCOc2ccc(CC3SC(=O)NC3=O)cc2)nc1 (stereo not shown) [Pioglitazone]
Cholesterol-free media + simvastatin (0.04 μM) [1, 3]: 2.095
Complete Media [1, 4]: 1.521
Difference [1, 5]: −0.57
Cholesterol-free [2, 7]: 0.8939
Difference [2, 15]: 0.27

Phentolamine (mesylate)
Cholesterol-free media + simvastatin (0.04 μM) [1, 26]: 0.9072
Complete Media [1, 27]: 0.8992
Difference [1, 28]: −0.01
Difference [2, 20]: −0.51
Cholesterol-free [2, 21]: 1.404
Complete [2, 22]: 0.8982

NC(=O)C[C@H](N)C(=O)O [L-Asparagine]
Cholesterol-free media + simvastatin (0.04 μM) [1, 18]: 0.6588
Complete Media [1, 19]: 0.704
Difference [1, 14]: 0.05
Difference [2, 6]: −0.27
Cholesterol-free [2, 16]: 1.71
Complete ([2]; NCI-H292 cells, complete media): 1.437

CCOc1ccc2nc(S(N)(=O)=O)sc2c1 [Ethoxzolamide]
Cholesterol-free media + simvastatin (0.04 μM) [1, 9]: 1.137
Complete Media [1, 10]: 1.016
Difference [1, 5]: −0.12
Cholesterol-free [2, 16]: 1.33
Complete ([2]; NCI-H292 cells, complete media): 0.9909
Difference [2, 17]: −0.34

CNC(=O)c1cc(Oc2ccc(NC(=O)Nc3ccc(Cl)c(C(F)(F)F)c3)c(F)c2)ccn1 [Regorafenib]
Cholesterol-free media + simvastatin (0.04 μM) [1, 25]: 1.071
Complete Media ([1]; drug in complete media): 0.8585
Difference [1, 5]: −0.21
Difference [2, 11]: −0.09
Cholesterol-free [2, 12]: 0.6924
Complete [2, 13]: 0.601
